Values after ≈ are worked out from the molar mass of the structure shown. Like-named read-outs stand apart in the source and are kept apart here.
Tests used:
[1] = tested on: tdTomato-expressing Mtb in the lungs of BALB/c mice; format: in vivo, Mycobacterium tuberculosis; settings: after a 12-days treatment
THP-1 cells = assay: MTT cell viability cytotoxicity assay, THP-1 derived macrophages; format: cell-based, human; settings: for IC50: Homo sapiens, THP-1, 48 h, read-out: IC50 THP-1; for SI (IC50/MIC) THP-1: IC50 THP-1 / MIC Mtb, 2880 min
[2] = molecular target: Mtb chorismate synthase (Mtb-Cs, Rv2540c) (Mycobacterium tuberculosis, UniProt P9WPY1); assay: Mtb chorismate synthase activity assay (coupled, Pi production with MESG/PNP); format: biochemical; settings: Pi production at A360, EPSP, FMN 0.04 mM, NADH 0.3 mM
Mtb CDC1551 = assay: Resazurin microtiter assay (REMA) for MICs; format: cell-based; settings: Mycobacterium tuberculosis, CDC1551, 168 h
[3] = tested on: intracellular Mtb in THP-1 cell derived macrophages; assay: Efficacy against intracellular Mtb in THP-1 derived macrophages; format: cell-based, Mycobacterium tuberculosis; settings: for CFUs of intracellular Mtb at 48 h compared to before treatment (0 h): 25 and 50 μM; for CFUs of intracellular Mtb at 48 h compared to before treatment (0 h) / Mtb CFU compared to the initial intracellular Mtb load (0 h): 48 h
Procedure: Human monocyte THP-1 cells were seeded at 5 × 10^4 cells / well in 96-well tissue culture black plates with clear bottoms. PMA was used to induce the monocytes to develop into macrophages for 3 days before infection. The tdTomato-expressing Mtb strain was employed for cell infection at an MOI = 20. After a 3 h incubation of the Mtb strain with THP-1 cells, extracellular bacteria were removed by washing twice with the cell culture medium. 200 μL of cell culture medium containing either 25 or 50 μM aurones or 1X MICs of amikacin (AMI, 1 μg/mL), ethambutol (ETH, 0.5 μg/mL), RIF (0.4 μg/mL) and isoniazid (INH) (0.5 μg/mL) was added to each well in triplicate and incubated for 48 h. Infected cells treated with the vehicle buffer served as negative controls. Cells were then lysed and plated for CFU counting.
FIGURE 2 Aurones inhibit intracellular Mtb. (A) Growth ratios of samples treated with the aurone leads or control drugs compared to the growth ratio of untreated control. Growth ratio of each sample = FI of each sample at 48 h / FI of the same sample at 0 h. (B) CFUs of samples treated with the aurone leads or control drugs compared to the CFU of untreated control at 0 and 48 h. 25 and 50 μM of the aurone leads were incubated with the infected cells (MOI = 20) after removing extracellular bacteria. Positive controls: AMI (1 μg/mL), ETH (0.5 μg/mL), INH (0.5 μg/mL), and RIF (0.4 μg/mL). Data are means of three independent experiments ± S.D. *P < 0.05, **P < 0.01, ****P < 0.0001.

[4] = tested on: tdTomato-expressing Mtb CDC1551 strain; assay: microbe, parasite or virus in culture; format: cell-based, Mycobacterium tuberculosis; settings: aurones at 100 μM, 3 days co-incubation, tdTomato fluorescence intensity; for inhibition at 100 µM: Mycobacterium tuberculosis, 72 h, read-out: Inhibitory rate
HepG2 cells = assay: MTT cell viability cytotoxicity assay, HepG2; format: cell-based, human; settings: for IC50: Homo sapiens, HepG2, 48 h, read-out: IC50 HepG2; for SI (IC50/MIC) HepG2: IC50 HepG2 / MIC Mtb, 2880 min; for selectivity index: on all three cell lines (HepG2, Vero, THP-1)
Procedure: Cytotoxicities of the aurones were evaluated in Vero cells (ATCC), HepG2 (ATCC), and THP-1 cells (ATCC) using the standard microculture tetrazolium (MTT) cell viability assay. Media used for the Vero cells was DMEM supplemented with 10% calf serum; for HepG2 cells the media used was DMEM supplemented with 20% calf serum; and for THP-1 cells the media used was RPMI-1640 supplemented with 10% calf serum (HyClone Cosmic Calf, GE Lifesciences). Cells were seeded into a 96-well plate. For THP-1 cells, phorbol-12-myristate-13-acetate (PMA) was used to induce the monocytes to develop into macrophages for 3 days before the cytotoxicity assay. A series of two-fold dilutions of aurones or RIF were added into the cell culture media in microplates to determine the concentration that eliminated 50% of eukaryotic cell growth in a 2-days incubation. Cells without drug treatment were incubated with the vehicle buffer and served as negative controls (100% viable). Cells treated with digitonin (100 μg/mL) served as the positive controls. After a 2-days incubation, 10 μL of MTT reagent was loaded into each well, and incubated for 3 h at 37°C. Hundred microliter of detergent solution was then added into each well and the 96-well plates were incubated for 2 h. Absorbance of each sample in the 96-well plates was measured at […]. Viability of each drug-treated sample was calculated as the absorbance of the sample divided by the absorbance of the untreated sample multiplied by 100.
We determined MICs of the top six aurone leads (AA2A, AA8, 9501, 9504, 9505, and 9510) using the standard resazurin microtiter assay (REMA) ([Palomino et al., 2002]). The MIC was defined as the lowest drug concentration that prevented the color change of resazurin from blue to pink. The MICs for 9504, 9505, 9501, 9510, AA2A, and AA8 were 6.25, 12.5, 25, 25, 25, and 50 μM, respectively (Table 2). We evaluated the cytotoxic effects of aurones to human liver cells HepG2, primate kidney Vero cells and human monocyte THP-1 cells after a 2-days incubation using the microculture tetrazolium (MTT) cell viability assay. Concentration gradients of the selected aurones or RIF (as a control) were incubated with the three cell lines. We calculated half maximal inhibitory concentration (IC50) of aurones on these three cell lines. By comparing MICs with IC50, we calculated the selectivity index (SI) for each aurone lead as […].

[5] = tested on: purine nucleoside phosphorylase (PNP); assay: Purine nucleoside phosphorylase counter-assay; format: biochemical; settings: PNP 0.2 U, MESG 50 μM, potassium phosphate 10 mM
Procedure: FIGURE 4 AA2A and 9504 inhibit Mtb-Cs activity. (A) Assay to measure the ability of aurones to inhibit Cs of Mtb. (B) SDS-PAGE analysis of extracted rRv3227 (left) and rRv2540c (right). Lane 1: marker (PageRuler^M Unstained); 2: crude protein extracts; 3–5: samples eluted from Ni-column by 125, 250, and 500 mM imidazole, respectively; 6: the concentrated proteins eluted by 500 mM imidazole. (C) Evaluation of 9501, 9504, 9505, and 9510 inhibitory effects on Mtb-Cs activity. (D) Evaluation of AA2A and AA8 inhibitory effects on Mtb-Cs activity. Data are means of three independent experiments ± S.D. The reaction mixture comprised Mtb-Cs, various concentrations of aurone leads, EPSP ([…]), FMN (0.04 mM) and NADH (0.3 mM). The production of chorismate from the enzymatic reaction was determined by measuring Pi production using MESG (0.2 mM) and PNP (1 U). […] The reaction mixture comprised PNP (0.2 U), MESG (50 μM), potassium phosphate (10 mM), and aurones (50 μM for 9501, 9504, 9505, and 9510; 200 μM for AA2A and AA8). No significant differences (P > 0.05) were identified between each of the aurone-treated group and the positive control group. Data are means of three independent experiments ± S.D.

Vero cells = assay: MTT cell viability cytotoxicity assay, Vero; format: cell-based, primate; settings: for SI (IC50/MIC) Vero: IC50 Vero / MIC Mtb, 2880 min; for IC50: Primates, Vero, 48 h, read-out: IC50 Vero
[6] = MTT cell viability cytotoxicity assay, Vero; format: cell-based, primate; settings: monkey, vero cells; MTT, 2-days incubation; read-out: IC50 Vero
Mtb = tested on: Mtb; parameters: method as in Jayaram et al., 2003; settings: 10 mg/kg, 12 daily oral doses; ref Jayaram et al., 2003; cited from earlier work
[7] = MTT, 2-days incubation, PMA-induced macrophages
[8] = REMA, 7 days incubation, lowest concentration preventing resazurin colour change, read-out: MIC

Chain of Mtb chorismate synthase (Mtb-Cs, Rv2540c) (P9WPY1 whole entry): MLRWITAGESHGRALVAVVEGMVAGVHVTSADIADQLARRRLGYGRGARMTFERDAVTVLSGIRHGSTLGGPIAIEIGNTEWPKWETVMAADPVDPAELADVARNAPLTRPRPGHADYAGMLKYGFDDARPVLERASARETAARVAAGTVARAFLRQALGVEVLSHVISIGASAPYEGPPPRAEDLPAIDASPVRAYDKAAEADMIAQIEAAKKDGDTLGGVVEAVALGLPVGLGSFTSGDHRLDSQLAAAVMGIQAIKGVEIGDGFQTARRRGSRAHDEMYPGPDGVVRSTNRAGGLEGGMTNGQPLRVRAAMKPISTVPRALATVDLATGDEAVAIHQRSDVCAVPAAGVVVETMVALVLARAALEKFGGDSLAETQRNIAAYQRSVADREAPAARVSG

| Compound | Mtb load in the lungs of infected mice [1] | IC50 (THP-1 cells; [7]) [µM] | SI (IC50/MIC) THP-1 (THP-1 cells) | IC50 [2] [µM] | MIC (Mtb CDC1551; [8]) [µM] | CFUs of intracellular Mtb at 48 h compared to before treatment (0 h) [3] | inhibition at 100 µM [4] [%] | IC50 (HepG2 cells; MTT, 2-days incubation) [µM] | SI (IC50/MIC) HepG2 (HepG2 cells) | SI (IC50/MIC) Vero (Vero cells) | IC50 (Vero cells; MTT, 2-days incubation) [µM] | Mtb CFU compared to the initial intracellular Mtb load (0 h) ([3]; 50 μM) | selectivity index (HepG2 cells) | inhibition of PNP ([5]; aurone 50 μM) | Inhibitory rate [4] [%] | also measured |
| --- | --- | --- | --- | --- | --- | --- | --- | --- | --- | --- | --- | --- | --- | --- | --- | --- |
| O=C1C(=Cc2ccccc2)Nc2ccccc21 [AA8] | significantly reduced | 504 | 10.08 | 50.3 ± 8.61 | 50 (≈ 11.1 µg/mL) | did not increase | 71.9 ± 2 | 399 | 7.99 | 5.58 | 279 |  |  |  |  | inhibition of PNP ([5]; aurone 200 μM): do not inhibit |
| CN(C)c1ccc(C=C2Oc3cc(Br)ccc3C2=O)cc1 [Aurone 9504] | significantly reduced |  | 100.50 | 17.1 ± 1.07 |  | did not increase | 88.29 ± 0.16 |  | 126.40 | 87.98 |  | reduced Mtb CFU significantly | > 10 | do not inhibit |  | IC50 (THP-1 cells): 628 µM; MIC (Mtb CDC1551): 6.25 µM (≈ 2.15 µg/mL); IC50 (HepG2 cells): 790 µM; IC50 (Vero cells): 550 µM |
| CC(=O)N1/C(=C\c2ccccc2O)C(=O)c2ccccc21 [AA3A] |  |  |  |  |  |  |  |  |  |  |  |  |  |  | 41.32 ± 9.99 |  |
| CC(=O)N1C(=Cc2ccccc2Br)C(=O)c2ccccc21 [AA2A] | significantly reduced | 110 | 4.39 | 24.1 ± 0.55 | 25 (≈ 8.55 µg/mL) | did not increase | 85.95 ± 0.38 | 118 | 4.71 | 5.13 | 128 | reduced Mtb CFU significantly |  |  |  | inhibition of PNP ([5]; aurone 200 μM): do not inhibit |
| CC(=O)N1/C(=C\c2ccc(CO)o2)C(=O)c2ccccc21 [AA4A] |  |  |  |  |  |  |  |  |  |  |  |  |  |  | 66.18 ± 0.98 |  |
| CN(C)c1ccc(C=C2Oc3cc(Cl)ccc3C2=O)cc1 [Aurone 9501] | significantly reduced |  | 12.98 | 5.36 ± 1.65 |  | did not increase | 85 ± 2.24 |  | 15.85 | 44.50 |  | reduced Mtb CFU significantly | > 10 | do not inhibit |  | IC50 (THP-1 cells): 325 µM; MIC (Mtb CDC1551): 25 µM (≈ 7.49 µg/mL); IC50 (HepG2 cells): 396 µM; CC50 at 48 h [6]: 1110 µM |
| CC(=O)N1/C(=C\c2ccc[nH]2)C(=O)c2ccccc21 [AA5A] |  |  |  |  |  |  |  |  |  |  |  |  |  |  | 69.93 ± 10.09 |  |
| Cc1cc2c(cc1C)C(=O)C(=Cc1ccc(N(C)C)cc1)O2 [Aurone 9510] |  | 693 | 27.71 | 15.1 ± 1.68 | 25 (≈ 7.33 µg/mL) |  | 83.1 ± 1.62 | 451 | 18.06 | 35.69 | 892 |  | > 10 | do not inhibit |  | intracellular Mtb replication ([3]; 25 μM, at 48 h): did not fully inhibit |
| CO[C@H]1/C=C/O[C@@]2(C)Oc3c(C)c(O)c4c(O)c(c(/C=N/N5CCN(C)CC5)c(O)c4c3C2=O)NC(=O)/C(C)=C\C=C\[C@H](C)[C@H](O)[C@@H](C)[C@@H](O)[C@@H](C)[C@H](OC(C)=O)[C@@H]1C [RIF, rifampicin, reference compound] |  | 15 |  |  | 0.5 (≈ 0.411 µg/mL) |  |  | 4.56 |  |  | 22.8 |  |  |  |  | CFU reduction in bacterial burden in the lungs (Mtb): ~1 log10 CFU |
| CN(C)c1ccc(C=C2Oc3c(Br)cccc3C2=O)cc1 [Aurone 9505] |  | 219 | 17.56 | 24.5 ± 9.44 | 12.5 (≈ 4.3 µg/mL) | did not increase | 84.4 ± 2.99 | 29.3 | 2.34 | 38.34 | 479 | reduced Mtb CFU significantly |  | do not inhibit |  | Mtb CFU compared to the initial intracellular Mtb load (0 h) ([3]; 25 μM): reduced Mtb CFU significantly |

From PMC7251074, “Identification of Anti-tuberculosis Compounds From Aurone Analogs” (Frontiers in Microbiology, 2020)
